Measured values reported in patent US20260132125A1, “PESTICIDALLY ACTIVE FUSED BICYCLIC HETEROAROMATIC COMPOUNDS” (priority 2022, published 2026).

Assays:
Type in all cases: in vivo
[1] = tested on: Chilo suppressalis; assay: Example B1: activity against Chilo suppressalis (striped rice stemborer), artificial diet; details: 144 h, 200 ppm, L2 larvae, 6 days after infestation, read-out: control (at least one of mortality, anti-feedant effect, growth inhibition)
How it was run: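 Diet-incorporation surface assay: aqueous dilutions of 10'000 ppm DMSO stock applied to artificial diet, dried; 6-8 L2 larvae/well; read day 6 post-infestation for mortality, antifeedant effect, growth inhibition vs untreated. Active if any category above untreated.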

[2] = tested on: Diabrotica balteata; assay: Example B2: activity against Diabrotica balteata (corn root worm), maize sprouts; details: 96 h, L2 larvae, 4 days after infestation, read-out: effect in at least one of the two categories (mortality or growth inhibition)
How it was run: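 Maize sprouts on agar were sprayed with aqueous test solutions made from 10′000 ppm DMSO stocks, dried, then infested with 6–10 L2 larvae per well. Mortality and growth inhibition were scored against untreated samples 4 days after infestation, at an application rate of 200 ppm.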

[3] = tested on: Myzus persicae; assay: Example B4: activity against Myzus persicae (green peach aphid), intrinsic activity; details: 120 h, test rate 12 ppm, 5 days after infestation
How it was run: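 Compounds from 10′000 ppm DMSO stocks were mixed into sucrose solution in 24-well plates sealed with Parafilm. Aphid-infested pea seedlings were set on the membrane and the plate inverted so aphids fed through it. Mortality scored 5 days after infestation.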

[4] = tested on: Plutella xylostella; assay: Example B5: activity against Plutella xylostella (diamond back moth), artificial diet, eggs; details: 192 h, 8 days after infestation, read-out: effect in at least one of the two categories (mortality or growth inhibition)
How it was run: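 Artificial diet in 24-well plates was treated with aqueous dilutions of DMSO stocks, dried, then infested with Plutella eggs. Mortality and growth inhibition were scored against untreated samples 8 days after infestation; application rate 200 ppm.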

[5] = tested on: Spodoptera littoralis; assay: Example B6: activity against Spodoptera littoralis (Egyptian cotton leaf worm), cotton leaf discs; details: foliar, 72 h, 200 ppm, L1 larvae, 3 days after infestation, read-out: control (at least one of mortality, anti-feedant effect, growth inhibition)
How it was run: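 Leaf discs on agar; spray, aqueous dilution of 10′000 ppm DMSO stock; dry; 5 L1 larvae/disc. Read at 3 d post-infestation: mortality, antifeedant, growth inhibition vs untreated. Control = ≥1 category above untreated.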

[6] = tested on: Myzus persicae; assay: Example B7b: Myzus persicae feeding/contact activity, eggplant leaf discs; details: foliar, 144 h, mixed ages, 6 days after infestation
Description: Eggplant leaf discs were placed onto agar in a 24-well microtiter plate and sprayed with aqueous test solutions prepared from 10′000 ppm DMSO stock solutions. After drying, the leaf discs were infested with an aphid population of mixed ages. The samples were assessed for mortality 6 days after infestation.

[7] = tested on: Pseudoplusia includens; assay: Example B9: Pseudoplusia includens (soybean looper), larvicide, feeding/contact, soybean plants; details: Chrysodeixis includens; for percent effect (mortality or growth inhibition) at 50 ppm: 120 h, L2 larvae, 5 days after infestation, read-out: effect in at least one of the two categories (mortality or growth inhibition)
Description: Soybean plants were treated in a spray chamber, cut off and placed into petri dishes containing wet filter paper. 1d after application leaves were infested with 5 L2 larvae and covered with a fabric filter and plastic lids. 5 days after infestation the samples were assessed for mortality and growth inhibition. The following compounds gave an effect of at least 80% in at least one of the two categories (mortality or growth inhibition) at an application rate of 50 ppm: […]

[8] = tested on: Euschistus heros; assay: Example B3: activity against Euschistus heros (neotropical brown stink bug), soybean leaves; details: for percent effect (mortality or growth inhibition) at 200 ppm: 120 h, N2 nymphs, 5 days after infestation, read-out: effect in at least one of the two categories (mortality or growth inhibition)
Description: Soybean leaves on agar in 24-well microtiter plates were sprayed with aqueous test solutions prepared from 10′000 ppm DMSO stock solutions. After drying the leaves were infested with N2 nymphs. The samples were assessed for mortality and growth inhibition in comparison to untreated samples 5 days after infestation. The following compounds gave an effect of at least 80% in at least one of the two categories (mortality or growth inhibition) at an application rate of 200 ppm: […]

[9] = tested on: Plutella xylostella; assay: B14b: Plutella xylostella (diamond back moth), larvicide L3, feeding/contact, Chinese cabbage; details: 0.8 ppm
Text: Activity of compounds P5, P17 and P21 according to the preparatory examples and of a compound from WO 21/083936 against Spodoptera littoralis (Example B6 above), Chilo suppressalis (Example B1 above), Diabrotica balteata (Example B14a below), Plutella xylostella (Example B14b below) and Pseudoplusia includens (Example B9 above) is summarized in Table B14. B14a: Diabrotica balteata (Corn root worm). Larvicide, feeding/contact 3 Corn seedlings were placed on wetted filter paper in plastic cups, and 3 ml of diluted test solutions were pipetted onto them. The cups were infested with 10 L2 larvae and checked for mortality and growth regulation 5 days after treatment. B14b: Plutella xylostella (Diamond back moth). Larvicide L3, feeding/contact Chinese cabbage plants were sprayed with diluted test solutions in an application chamber. Cut off leaves were placed into petri dishes with wetted filter paper and infested 1 day after application with 10 L3 larvae. Samples were assessed 4 days after infestation for mortality and growth regulation.

| SMILES | percent control (mortality, anti-feedant effect or growth inhibition) at 200 ppm [1] [%] | percent effect (mortality or growth inhibition) at 200 ppm [2] [%] | mortality at 12 ppm [3] [%] | percent effect (mortality or growth inhibition) at 200 ppm [4] [%] | percent control (mortality, anti-feedant effect or growth inhibition) at 200 ppm [5] [%] | mortality at 200 ppm [6] [%] | percent effect (mortality or growth inhibition) at 50 ppm [7] [%] | percent effect (mortality or growth inhibition) at 200 ppm [8] [%] | mortality at 200 ppm [8] [%] | mortality at 3 ppm ([7]; Pseudoplusia includens, 3 ppm) [%] | mortality at 0.8 ppm [9] [%] |
| --- | --- | --- | --- | --- | --- | --- | --- | --- | --- | --- | --- |
| C[C@H](Nc1ncnc2c(C(F)(F)F)cc(Cl)cc12)c1ncnn1-c1cc(C(=O)N(C)C)ncn1 [Compound P30, 6-[5-[(1S)-1-[[6-chloro-8-(trifluoromethyl)quinazolin-4-yl]amino]ethyl]-1,2,4-triazol-1-yl]-N,N-dimethyl-pyrimidine-4-carboxamide] | ≥ 80 | ≥ 80 | ≥ 80 | ≥ 80 | ≥ 80 | ≥ 80 | ≥ 80 | – | – | – | – |
| CCN(C)C(=O)c1cc(-n2ncnc2[C@H](C)Nc2ncnc3c(C(F)(F)F)cc(Cl)cc23)ncn1 [Compound P31, 6-[5-[(1S)-1-[[6-chloro-8-(trifluoromethyl)quinazolin-4-yl]amino]ethyl]-1,2,4-triazol-1-yl]-N-ethyl-N-methyl-pyrimidine-4-carboxamide] | ≥ 80 | ≥ 80 | ≥ 80 | ≥ 80 | ≥ 80 | ≥ 80 | ≥ 80 | – | – | – | – |
| C[C@H](Nc1ncnc2c(C(F)(F)F)cc(Cl)cc12)c1ncnn1-c1cc(C(=O)NCC#N)ncn1 [Compound P38, 6-[5-[(1S)-1-[[6-chloro-8-(trifluoromethyl)quinazolin-4-yl]amino]ethyl]-1,2,4-triazol-1-yl]-N-(cyanomethyl)pyrimidine-4-carboxamide] | ≥ 80 | ≥ 80 | ≥ 80 | ≥ 80 | ≥ 80 | ≥ 80 | ≥ 80 | ≥ 80 | – | – | – |
| C[C@H](Nc1ncnc2c(Br)cc(Br)cc12)c1ncnn1-c1cc(C#N)ncn1 [Compound P41, 6-[5-[(1S)-1-[(6,8-dibromoquinazolin-4-yl)amino]ethyl]-1,2,4-triazol-1-yl]pyrimidine-4-carbonitrile] | ≥ 80 | ≥ 80 | – | ≥ 80 | ≥ 80 | ≥ 80 | – | – | – | – | – |
| C[C@@H](c1ncnn1-c1cc(C(=O)NCC#N)ncn1)N(C)c1ncnc2c(C(F)(F)F)cc(Cl)cc12 [Compound P52, 6-[5-[(1S)-1-[[6-chloro-8-(trifluoromethyl)quinazolin-4-yl]-methyl-amino]ethyl]-1,2,4-triazol-1-yl]-N-(cyanomethyl)pyrimidine-4-carboxamide] | ≥ 80 | ≥ 80 | ≥ 80 | ≥ 80 | ≥ 80 | ≥ 80 | ≥ 80 | ≥ 80 | – | – | – |
| CCN(C)C(=O)c1cc(-n2ncnc2[C@H](C)N(C)c2ncnc3c(C(F)(F)F)cc(Cl)cc23)ncn1 [Compound P55, 6-[5-[(1S)-1-[[6-chloro-8-(trifluoromethyl)quinazolin-4-yl]-methyl-amino]ethyl]-1,2,4-triazol-1-yl]-N-ethyl-N-methyl-pyrimidine-4-carboxamide] | ≥ 80 | ≥ 80 | ≥ 80 | ≥ 80 | ≥ 80 | ≥ 80 | ≥ 80 | ≥ 80 | – | – | – |
| C[C@H](Nc1ncnc2c(S(=O)(=O)C(F)(F)F)cc(Cl)cc12)c1ncnn1-c1cc(C(N)=O)ncn1 [Compound P59, 6-[5-[(1S)-1-[[6-chloro-8-(trifluoromethylsulfonyl)quinazolin-4-yl]amino]ethyl]-1,2,4-triazol-1-yl]pyrimidine-4-carboxamide] | ≥ 80 | ≥ 80 | ≥ 80 | ≥ 80 | ≥ 80 | ≥ 80 | – | ≥ 80 | – | – | – |
| CNC(=O)c1cc(-n2ncnc2[C@H](C)N(C)c2ncnc3c(S(=O)(=O)C(F)(F)F)cc(Cl)cc23)ncn1 [Compound P61] | ≥ 80 | ≥ 80 | ≥ 80 | ≥ 80 | ≥ 80 | ≥ 80 | ≥ 80 | ≥ 80 | – | – | – |
| C[C@H](Nc1ncnc2c(C(F)(F)F)cc(Cl)cc12)c1ncnn1-c1cc(C(=O)N(C)C2CC2)ncn1 [Compound P63, 6-[5-[(1S)-1-[[6-chloro-8-(trifluoromethyl)quinazolin-4-yl]amino]ethyl]-1,2,4-triazol-1-yl]-N-cyclopropyl-N-methyl-pyrimidine-4-carboxamide] | ≥ 80 | ≥ 80 | ≥ 80 | ≥ 80 | ≥ 80 | ≥ 80 | – | ≥ 80 | – | – | – |
| C[C@@H](c1ncnn1-c1cc(C(N)=O)ncn1)N(C)c1ncnc2c(S(=O)(=O)C(F)(F)F)cc(Cl)cc12 [Compound P67, 6-[5-[(1S)-1-[[6-chloro-8-(trifluoromethylsulfonyl)quinazolin-4-yl]-methyl-amino]ethyl]-1,2,4-triazol-1-yl]pyrimidine-4-carboxamide] | ≥ 80 | ≥ 80 | ≥ 80 | ≥ 80 | ≥ 80 | ≥ 80 | – | ≥ 80 | – | – | – |
| C[C@@H](c1ncnn1-c1cc(C(=O)N(C)C)ncn1)N(C)c1ncnc2c(C(F)(F)F)cc(Cl)cc12 [Compound P82, 6-[5-[(1S)-1-[[6-chloro-8-(trifluoromethyl)quinazolin-4-yl]-methyl-amino]ethyl]-1,2,4-triazol-1-yl]-N,N-dimethyl-pyrimidine-4-carboxamide] | – | ≥ 80 | ≥ 80 | ≥ 80 | ≥ 80 | ≥ 80 | – | – | – | – | – |
| C[C@H](Nc1ncnc2c(Cl)cc(C(F)(F)F)cc12)c1ncnn1-c1ncccn1 [WO 21/083936 P.18, reference compound] | – | – | – | – | – | – | – | – | 0 | 40 | 65 |
